The source of these data is patent publication US20180305332A1, “Bispiperidinyl Derivatives as Liver X Receptor Beta Agonists, Compositions, and Their Use” (Merck Sharp & Dohme Corp., priority 2015, published 2018).

Assay [1] concerns the target T1, GST tagged LXRalpha LBD (ligand binding domain) (Homo sapiens, UniProt Q13133).
T1 construct: purchased Invitrogen pv4655
T1 sequence (Q13133 209-447 limits assumed): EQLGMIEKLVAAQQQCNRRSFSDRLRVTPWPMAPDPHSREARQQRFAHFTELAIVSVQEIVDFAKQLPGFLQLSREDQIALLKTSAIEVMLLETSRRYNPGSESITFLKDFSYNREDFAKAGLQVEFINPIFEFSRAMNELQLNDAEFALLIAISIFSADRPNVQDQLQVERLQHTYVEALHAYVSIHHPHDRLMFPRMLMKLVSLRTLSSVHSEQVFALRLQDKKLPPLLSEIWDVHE
Put plainly: LanthaScreen TR-FRET Liver X Receptor Coactivator Assay, LXR alpha-LBD. Format: biochemical. The note with it: relative to reference T0901317; for EC50: Inflection Point (potency), co-activator recruitment, read-out: LXR alpha IP; for Emax: read-out: LXR alpha act @ max dose (%). The method, boiled down:
(§1)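 LXR LBD protein mixed with test compound, then fluorescein-labelled coactivator peptide plus terbium anti-GST antibody added; after room-temperature incubation, TR-FRET read. Inflection point and Emax derived from coactivator recruitment relative to reference dual agonist T0901317.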

For assay [2], the target named is T2, GST tagged LXRbeta LBD (ligand binding domain) (Homo sapiens, UniProt P55055).
T2 construct: purchased Invitrogen pv4658.pps
T2 sequence (P55055 222-460 limits assumed): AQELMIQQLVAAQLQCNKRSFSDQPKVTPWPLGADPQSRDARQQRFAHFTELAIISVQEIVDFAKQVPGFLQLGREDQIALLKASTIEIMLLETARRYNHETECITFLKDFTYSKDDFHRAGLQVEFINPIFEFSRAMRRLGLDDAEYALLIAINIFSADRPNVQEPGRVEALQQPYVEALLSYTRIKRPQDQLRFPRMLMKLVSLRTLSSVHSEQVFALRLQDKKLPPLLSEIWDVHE
Put plainly: LanthaScreen TR-FRET Liver X Receptor Coactivator Assay, LXR beta-LBD. Format: biochemical. The note with it: relative to reference T0901317; for EC50: Inflection Point (potency), co-activator recruitment, read-out: LXR beta IP; for Emax: read-out: LXR beta act @ max dose (%). The procedure, abridged: as §1
(In TR-FRET formats the signal depends on donor and acceptor labels being close together.)

[3] abbreviates: activity at max dose (efficacy).

The structures appear in SMILES notation.

`CC(C)C(O)(C(=O)N1CCC(C2CCN(c3ccc(C(=O)N(C)C)c(Cl)n3)CC2)CC1)C(C)C` [Example B-2, 2-chloro-6-{1′-[2-hydroxy-3-methyl-2-(1-methylethyl)butanoyl]-4,4′-bipiperidin-1-yl}-N,N-dimethylpyridine-3-carboxamide]: the EC50 was 1710 nM in assay [1] and 57 nM in assay [2]. Also, the figures for the Emax in assay [1] (setting [3]) and in assay [2] (setting [3]) were 47% and 123%, respectively.

In the case of `CC(C)CC(O)(C(=O)N1CCC(C2CCN(c3ccc(C(=O)N(C)C)c(Cl)c3)CC2)CC1)C(F)(F)F` (stereo not drawn) [Example A-89, 2-chloro-4-{1′-[2-hydroxy-4-methyl-2-(trifluoromethyl)pentanoyl]-4,4′-bipiperidin-1-yl}-N,N-dimethylbenzamide], the EC50 in assay [1] is 1220 nM; in assay [2], 102 nM. Moreover, the “LXR alpha act @ max dose (%)” value in assay [1] (setting [3]) is on record as 36%. Moreover, in assay [2] (setting [3]), the “LXR beta act @ max dose (%)” value came out at 94%.

Take `CCCCN(C)C(=O)c1ccc(N2CCC(C3CCN(C(=O)[C@](O)(c4ccccc4)C(F)(F)F)CC3)CC2)cc1Cl` [Example E-59, N-butyl-2-chloro-N-methyl-4-{1′-[(2R)-3,3,3-trifluoro-2-hydroxy-2-phenylpropanoyl]-4,4′-bipiperidin-1-yl}benzamide]: the EC50 in assay [1] amounted to 2380 nM; in assay [2], 208 nM. Besides, the Emax in assay [1] (setting [3]) turned out to be 21%; in assay [2] (setting [3]) it was 89%.

In the case of `CN(C)C(=O)c1ccc(N2CCC(C3CCN(C(=O)[C@@](O)(c4ccccc4)C(F)(F)C(F)(F)F)CC3)CC2)cc1Cl` (single isomer, unassigned) [Example A-43], the EC50 is 620 nM in assay [1] and 54 nM in assay [2]. Moreover, the Emax was determined as 40% in assay [1] (setting [3]) and 128% in assay [2] (setting [3]).

`CN(C)C(=O)c1ccc(N2CCC(C3CCN(C(=O)C4(c5ccccc5F)CCCC4)CC3)CC2)cc1Cl` [Example A-45, 2-chloro-4-(1′-{[1-(2-fluorophenyl)cyclopentyl]carbonyl}-4,4′-bipiperidin-1-yl)-N,N-dimethylbenzamide]: the results for the EC50 in assay [1] and in assay [2] were 577 nM and 11 nM, respectively. For the same compound, the values for the Emax in assay [1] (setting [3]) and in assay [2] (setting [3]) were 53% and 108%, respectively.

For `CC(C)C(O)(C(=O)N1CCC(C2CCN(c3ccc(C(=O)N(C)C)c(Cl)c3)CC2)CC1)C(F)(F)C(F)(F)F` (stereo not drawn) [Example A-26, 2-chloro-N,N-dimethyl-4-{1′-[3,3,4,4,4-pentafluoro-2-hydroxy-2-(1-methylethyl)butanoyl]-4,4′-bipiperidin-1-yl}benzamide], the figures for the EC50 in assay [1] and in assay [2] were 967 nM and 112 nM, respectively. Further, the results for the Emax in assay [1] (setting [3]) and in assay [2] (setting [3]) were 45% and 103%, respectively.
